Test results published in patent US20260007133A1, “HERBICIDAL COMPOSITION COMPRISING AZINE COMPOUNDS” (BASF SE, priority 2022, published 2026).

Experiments:
Format in all cases: in vivo
[1] = tested on: Abutilon theophrasti; assay: Greenhouse post-emergence (POST) herbicidal test on ABUTH
Description: (§1) The culture containers used were plastic pots containing loamy sand with approximately 3.0% of humus as substrate. The seeds of the test plants were sown separately for each species.
(§2) For the post-emergence treatment, the test plants were grown to a plant height of from 3 to 15 cm, depending on the plant habit, and only then treated with the active compounds which had been suspended or emulsified in water. To this end, the test plants were either sown directly, and grown in the same containers, or they were first grown separately as seedlings and transplanted into the test containers a few days prior to treatment.
(§3) Depending on the species, the plants were kept at 10-25° C. and 20-35° C., respectively.
(§4) The test period extended over 2 to 4 weeks. During this time, the plants were tended and their response to the individual treatments was evaluated.
(§5) Evaluation was carried out using a scale from 0 to 100. 100 means no emergence of the plants, or complete destruction of at least the above-ground parts, and 0 means no damage or normal course of growth. A good herbicidal activity is given at values of at least 70, and very good herbicidal activity is given at values of at least 85.
(§6) If not stated differently, the respective components A and B, and if appropriate, C were formulated as a 5% by weight strength emulsion concentrate and, with addition of the amount of solvent system, introduced into the spray liquor used for applying the active compound.
(§7) As indicated application was either post emergent (POST) at the respective growth stage (GS) of the weed (BBCH code), or pre-emergent (PRE). […]

[2] = tested on: Digitaria sanguinalis; assay: Greenhouse post-emergence (POST) herbicidal test on DIGSA
Description: as §1, §2, §3, §4, §5, §6, §7

[3] = tested on: Echinochloa crus-galli; assay: Greenhouse post-emergence (POST) herbicidal test on ECHCG
Description: as §1, §2, §3, §4, §5, §6, §7

[4] = tested on: Geranium pusillum; assay: Greenhouse post-emergence (POST) herbicidal test on GERPU
Description: as §1, §2, §3, §4, §5, §6, §7

[5] = tested on: Abutilon theophrasti; assay: Greenhouse pre-emergence (PRE) herbicidal test on ABUTH; details: PRE, ABUTH
Description: as §1
(§8) The containers were irrigated gently to promote germination and growth and subsequently covered with transparent plastic hoods until the plants had rooted.
as §3, §4, §5, §7

[6] = tested on: Commelina benghalensis; assay: Greenhouse pre-emergence (PRE) herbicidal test on COMBE
Description: as §1, §8, §3, §4, §5, §7

[7] = tested on: Ambrosia artemisiifolia; assay: Greenhouse pre-emergence (PRE) herbicidal test on AMBEL; details: PRE
Description: as §1, §8, §3, §4, §5, §7

[8] = tested on: Lolium multiflorum; assay: Greenhouse pre-emergence (PRE) herbicidal test on LOLMU; details: PRE, 20 DAT
Description: as §1, §8, §3, §4, §5, §7

[9] = tested on: Alopecurus myosuroides; assay: Greenhouse pre-emergence (PRE) herbicidal test on ALOMY; details: PRE
Description: as §1, §8, §3, §4, §5, §7

[10] = tested on: Euphorbia heterophylla; assay: Greenhouse pre-emergence (PRE) herbicidal test on EPHHL; details: Euphorbia heterophylla, pre-emergence, EPHHL PRE
Description: as §1, §8, §3, §4, §5, §7

`CCCC(=NOCC(C)Oc1ccc(Cl)cc1)C1=C(O)CC(C2CCCSC2)CC1=O` (stereo not shown) [Profoxydim, profoxydim] was tested, and the “% activity” value ([1]; ABUTH POST, use rate 6.3 gai/ha) was 20%, the “% activity” value ([2]; DIGSA POST, use rate 6.3 gai/ha) was 60% and the “% activity” value ([3]; ECHCG POST, use rate 6.3 gai/ha) was 80%. The “% activity” value ([3]; ECHCG POST, use rate 12.5 gai/ha) was 85% and the “% activity” value ([4]; GERPU POST, use rate 6.3 gai/ha) was 0%.

Compound `CCNc1nc(Cl)nc(NC(C)C)n1` [Atrazine, atrazine] has an inhibition at 50 g/ha ([5]; Abutilon theophrasti, pre-emergence, 480 h, use rate 50 gai/ha, 20 DAT) of 0%, an inhibition at 100 g/ha ([6]; Commelina benghalensis, pre-emergence, 480 h, PRE, COMBE, use rate 100 gai/ha, 20 DAT) of 25% and an inhibition at 50 g/ha ([4]; Geranium pusillum, post-emergence, 480 h, POST, GERPU, use rate 50 gai/ha, 20 DAT) of 30%. It also gave an inhibition at 100 g/ha ([4]; Geranium pusillum, post-emergence, 480 h, POST, GERPU, use rate 100 gai/ha, 20 DAT, read-out: % activity) of 75%.

In the case of `CP(=O)(O)CC[C@H](N)C(=O)O.N` [L-Glufosinate-P-Ammonium], the “% activity” value ([3]; POST, ECHCG, use rate 75 gai/ha, 20 DAT) is reported as 30% and the “% activity” value ([4]; POST, GERPU, use rate 75 gai/ha, 20 DAT) is reported as 65%.

For `CCOC1Oc2ccc(OS(C)(=O)=O)cc2C1(C)C` (stereo not shown) [Ethofumesate, ethofumesate], the inhibition at 250 g/ha ([7]; Ambrosia artemisiifolia, pre-emergence, 480 h, use rate 250 gai/ha, 20 DAT) was 0% and the inhibition at 1000 g/ha ([8]; Lolium multiflorum, pre-emergence, 480 h, use rate 1000 gai/ha) was 60%.

`C#CCN1C(=O)C(F)(F)Oc2cc(F)c(-n3c(=O)n(C)c(=S)n(C)c3=O)cc21` [Trifludimoxazin, trifludimoxazin] was tested, and the “% activity” value ([5]; use rate 0.5 gai/ha) was 0%, the “% activity” value ([9]; ALOMY, use rate 0.5 gai/ha) was 10% and the “% activity” value ([7]; AMBEL, use rate 0.5 gai/ha) was 0%. For the same compound, the “% activity” value ([1]; POST, ABUTH, use rate 0.5 gai/ha) was 80% and the “% activity” value ([2]; POST, DIGSA, use rate 1 gai/ha) was 30%.

Compound `CS(=O)(=O)c1ccc(C(=O)C2C(=O)CCCC2=O)c([N+](=O)[O-])c1` [Mesotrione, mesotrione] has an inhibition at 4 g/ha ([6]; Commelina benghalensis, pre-emergence, COMBE PRE, use rate 4 gai/ha) of 25%, an inhibition at 4 g/ha ([10]; use rate 4 gai/ha) of 20% and an inhibition at 16 g/ha ([10]; use rate 16 gai/ha) of 45%.

Compound `COc1cnc(OC)n2nc(NS(=O)(=O)c3c(OCC(F)F)cccc3C(F)(F)F)nc12` [Penoxsulam, penoxsulam] has an inhibition at 4 g/ha ([1]; Abutilon theophrasti, post-emergence, ABUTH POST, use rate 4 gai/ha) of 0%, an inhibition at 2 g/ha ([2]; Digitaria sanguinalis, post-emergence, DIGSA POST, use rate 2 gai/ha, read-out: % activity) of 0% and an inhibition at 4 g/ha ([2]; Digitaria sanguinalis, post-emergence, DIGSA POST, use rate 4 gai/ha) of 10%. For the same compound, the inhibition at 2 g/ha ([3]; Echinochloa crus-galli, post-emergence, ECHCG POST, use rate 2 gai/ha, read-out: % activity) was 10% and the inhibition at 4 g/ha ([3]; Echinochloa crus-galli, post-emergence, ECHCG POST, use rate 4 gai/ha) was 35%.

In the case of `COC(=O)c1ccc(CNS(C)(=O)=O)cc1S(=O)(=O)NC(=O)Nc1nc(OC)cc(OC)n1` [Mesosulfuron-Methyl, mesosulfuron-methyl], the “% activity” value ([9]; use rate 0.25 gai/ha, 20 DAT) is reported as 0%, the “% activity” value ([9]; use rate 1 gai/ha, 20 DAT) is reported as 10% and the “% activity” value ([6]; PRE, use rate 0.25 gai/ha, 20 DAT) is reported as 35%. For the same compound, the “% activity” value ([8]; use rate 0.25 gai/ha) was 0% and the “% activity” value ([8]; use rate 1 gai/ha) was 0%.
